Measured values: ChEMBL document CHEMBL5257089, “Gamabufotalin Induces Apoptosis and Cytoprotective Autophagy through the mTOR Signaling Pathway in Hepatocellular Carcinoma” (J Nat Prod, 2023)
Calls of active or inactive are those of the source. The rule behind the calls is not given here.

How the values were obtained:
Format in all cases: functional, cell-based
[1] = test system: Hep 3B2; test: Induction of apoptosis in human Hep3B cells assessed as increase in bax level at 10 nM incubated for 48 hrs in presence of gamabufotalin by immunoblot analysis
[2] = test system: Huh-7; test: Induction of autophagic flux in human Huh-7 cells harbouring mCherry-egfp-LC3 assessed as increase in red puncta at 25 nM incubated for 15 mins by laser scanning confocal microscopic analysis
[3] = test system: Huh-7; test: Induction of autophagic flux in human Huh-7 cells assessed as decrease in p62 expression at upto 25 nM incubated for 48 hrs by Western blot analysis

SMILES	Activity [1]	Activity [2]	Activity [3]
CCN(CC)CCCC(C)Nc1ccnc2cc(Cl)ccc12 (stereo not drawn) [CHLOROQUINE]	Active	–	–
C[C@]12CC[C@H](O)C[C@H]1CC[C@@H]1[C@@H]2[C@H](O)C[C@]2(C)[C@@H](c3ccc(=O)oc3)CC[C@]12O [GAMABUFOTALIN]	–	Active	Active
